IC50 data for 30 molecules are collected here from patent publication US20240270741A1 (Cogent Biosciences, Inc., priority 2023, published 2024).

The structures appear in SMILES notation.

The target of one assay is FGFR2 (Homo sapiens, UniProt P21802). As to the kind of experiment: FGFR wild type enzyme assay (HTRF KinEASE-TK), FGFR2. The settings on record: Enz FGFR2 (nM).
Chain of FGFR2 (P21802 399-821 limits assumed): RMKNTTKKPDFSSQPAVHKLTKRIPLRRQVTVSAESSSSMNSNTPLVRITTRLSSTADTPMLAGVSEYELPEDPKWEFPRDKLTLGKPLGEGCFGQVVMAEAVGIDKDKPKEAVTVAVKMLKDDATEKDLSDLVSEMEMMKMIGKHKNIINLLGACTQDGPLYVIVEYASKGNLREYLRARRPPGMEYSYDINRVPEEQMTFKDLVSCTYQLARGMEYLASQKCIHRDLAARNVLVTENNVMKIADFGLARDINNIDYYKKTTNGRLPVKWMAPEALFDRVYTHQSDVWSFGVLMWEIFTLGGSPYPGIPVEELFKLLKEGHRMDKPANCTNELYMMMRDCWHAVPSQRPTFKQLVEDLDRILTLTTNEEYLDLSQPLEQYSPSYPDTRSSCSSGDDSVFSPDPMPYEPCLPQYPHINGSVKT
Protocol: Activity against FGFR wild type and mutant enzymes were determined in biochemical assays using purified intracellular domains of the respective isoforms using HTRF KinEASE-TK assay technology from CisBio, now PerkinElmer. (Catalogue number 62TK0PEC). Briefly test compounds were tested in 11 point 1:3 serial dilutions, typical final concentration ranges from 10,000 nM to 0.17 nM. Test compounds were dissolved in DMSO and added to assay plates using acoustic transfer. Enzyme was pre-incubated with test compound for 30 minutes and the assay was initiated by addition of ATP and TK-peptide substrate. After 60 minutes at room temperature the reaction was quenched with detection reagent and incubated for an additional 60 minutes at room temperature. The plates were read using a multimode reader and the emission ratio of 665 nm to 615 nm was determined. This ratio was converted to percent of control (POC). [1-(high control-sample signal)/(high control-low control)]*100. Wells without compound were used to determine high control values and wells without enzyme were used to determine low control values. The POC values were fit using a four-parameter logistic model and the value where the fit curve was equal to 50 POC was reported as the IC50 using the Signals Vitro Vivo software package (PerkinElmer). Final assay conditions were: 50 mM HEPES pH7.5, 10 mM MgCl2, 1 mM EDTA, 0.01% Brij-35, 2 mM MnCl2, 1 mM DTT, and 0.5 uM TK-peptide.
By IC50 is commonly meant the concentration that inhibits the measured activity by half. A lower IC50 goes with higher potency. For the molecule `Cc1c(-c2cc(Sc3ncccc3F)c3c(C#N)cnn3c2)cnn1C1CCNCC1` [Example 101, 4-[(3-fluoro-2-pyridyl)sulfanyl]-6-[5-methyl-1-(4-piperidyl)pyrazol-4-yl] pyrazolo[1,5-a]pyridine-3-carbonitrile], the midpoint of inhibition, the IC50, lay at 2 nM.

Consider `N#Cc1ccccc1Sc1cc(-c2cnn(C3CCNCC3)c2)cn2ncc(C#N)c12` [Example 62, 4-((2-cyanophenyl)thio)-6-(1-(piperidin-4-yl)-1H-pyrazol-4-yl)pyrazolo[1,5-a]pyridine-3-carbonitrile], for which the IC50 turned out to be 0.3 nM.

`N#Cc1cnn2cc(-c3cnn([C@H]4CCCNC4)c3)cc(Sc3ncccc3F)c12` [Example 63, 4-[(3-fluoro-2-pyridyl)sulfanyl]-6-[1-[(3S)-3-piperidyl]pyrazol-4-yl]pyrazolo[1,5-a]pyridine-3-carbonitrile] came in with an IC50 of 1 nM.

Molecule `Cc1c(-c2cc(Sc3cccc4c3cnn4C)c3c(C#N)cnn3c2)cnn1C1CCN(C)CC1` [Example 133, 4-(1-methylindazol-4-yl)sulfanyl-6-[5-methyl-1-(1-methyl-4-piperidyl)pyrazol-4-yl]pyrazolo[1,5-a]pyridine-3-carbonitrile] displayed an IC50 of 6 nM.

Staying with this assay, now noted: Enz FGFR2 (nM), FGFR2 wild type enzyme.
Molecule `Cc1c(-c2cc(Sc3ccccc3C#N)c3c(C#N)cnn3c2)cnn1C[C@@H]1CNCCO1` [Example 232, (S)-4-((2-cyanophenyl)thio)-6-(5-methyl-1-(morpholin-2-ylmethyl)-1H-pyrazol-4-yl)pyrazolo[1,5-a]pyridine-3-carbonitrile] gave an IC50 of 3.5 nM.

Regarding `Cc1c(-c2cc(Sc3ncccc3F)c3c(C#N)cnn3c2)cnn1C1CCN(C(=O)[C@H](C)N(C)C)CC1` [Example 215, 6-(1-(1-(dimethyl-L-alanyl)piperidin-4-yl)-5-methyl-1H-pyrazol-4-yl)-4-((3-fluoropyridin-2-yl)thio)pyrazolo[1,5-a]pyridine-3-carbonitrile], 1.6 nM corresponded to half-maximal inhibition (IC50).

Take `Cc1c(-c2cc(Sc3c(F)cc(F)cc3C#N)c3c(C#N)cnn3c2)cnn1C1CCN(C)CC1` [Example 151]: the IC50 was found to be 2 nM.

Consider `CC(=O)N1CC2(CC(n3ncc(-c4cc(Sc5ncccc5F)c5c(C#N)cnn5c4)c3C)C2)C1` [Example 210, 6-(1-(2-acetyl-2-azaspiro[3.3]heptan-6-yl)-5-methyl-1H-pyrazol-4-yl)-4-((3-fluoropyridin-2-yl)thio)pyrazolo[1,5-a]pyridine-3-carbonitrile], for which the IC50 was found to be 2 nM.

Molecule `Cc1c(-c2cc(Sc3ncccc3F)c3c(C#N)cnn3c2)cnn1C[C@@H]1[C@@H]2CNC[C@@H]21` [Example 236, 6-(1-(((1R,5S,6s)-3-azabicyclo[3.1.0]hexan-6-yl)methyl)-5-methyl-1H-pyrazol-4-yl)-4-((3-fluoropyridin-2-yl)thio)pyrazolo[1,5-a]pyridine-3-carbonitrile] returned an IC50 of 1 nM.

Consider `CC(=O)N1CCO[C@@H](Cn2ncc(-c3cc(Sc4ccccc4C#N)c4c(C#N)cnn4c3)c2C)C1` [Example 278, (R)-6-(1-((4-acetylmorpholin-2-yl)methyl)-5-methyl-1H-pyrazol-4-yl)-4-((2-cyanophenyl)thio)pyrazolo [1,5-a]pyridine-3-carbonitrile], for which half-maximal inhibition (IC50) required 4 nM.

In the case of `Cc1c(-c2cc(Sc3ncccc3F)c3c(C#N)cnn3c2)cnn1[C@H]1CC[C@@H](O)CC1` [Example 184, 4-((3-fluoropyridin-2-yl)thio)-6-(1-((1s,4s)-4-hydroxycyclohexyl)-5-methyl-1H-pyrazol-4-yl)pyrazolo[1,5-a]pyridine-3-carbonitrile], the IC50 was 1.6 nM.

`CN[C@]1(C)CC[C@H](n2ncc(-c3cc(Sc4ccccc4C#N)c4c(C#N)cnn4c3)c2C)CC1` [Example 319, 4-((2-cyanophenyl)thio)-6-(5-methyl-1-((1s,4s)-4-methyl-4-(methylamino)cyclohexyl)-1H-pyrazol-4-yl)pyrazolo[1,5-a]pyridine-3-carbonitrile] returned an IC50 of 0.3 nM.

`CC(=O)N(C)[C@H]1CC[C@@H](n2ncc(-c3cc(Sc4ncccc4F)c4c(C#N)cnn4c3)c2C)CC1` [Example 248, N-((1s,4s)-4-(4-(3-cyano-4-((3-fluoropyridin-2-yl)thio)pyrazolo[1,5-a]pyridin-6-yl)-5-methyl-1H-pyrazol-1-yl)cyclohexyl)-N-methylacetamide]: inhibition was half-maximal at 2 nM (IC50).

Molecule `Cc1c(-c2cc(Sc3ncccc3F)c3c(C#N)cnn3c2)cnn1C[C@@H]1CNCCO1` [Example 233, (S)-4-((3-fluoropyridin-2-yl)thio)-6-(5-methyl-1-(morpholin-2-ylmethyl)-1H-pyrazol-4-yl)pyrazolo[1,5-a]pyridine-3-carbonitrile] had an IC50 of 6 nM.

The molecule `CCN[C@H]1CC[C@@H](n2ncc(-c3cc(Sc4ncccc4F)c4c(C#N)cnn4c3)c2C)CC1` [Example 242, 6-(1-((1s,4s)-4-(ethylamino)cyclohexyl)-5-methyl-1H-pyrazol-4-yl)-4-((3-fluoropyridin-2-yl)thio)pyrazolo[1,5-a]pyridine-3-carbonitrile] displayed an IC50 of 1 nM.

For the molecule `Cc1nn([C@H]2CC[C@@H](O)CC2)cc1-c1cc(Sc2ncccc2F)c2c(C#N)cnn2c1` [Example 312, 4-((3-fluoropyridin-2-yl)thio)-6-(1-((1s,4s)-4-hydroxycyclohexyl)-3-methyl-1H-pyrazol-4-yl)pyrazolo[1,5-a]pyridine-3-carbonitrile], the IC50 turned out to be 1.5 nM.

The molecule `Cc1c(F)ccc(Sc2cc(-c3cnn(C4CCNCC4)c3C)cn3ncc(C#N)c23)c1C#N` [Example 168] came in with an IC50 of 1 nM.

`Cc1c(-c2cc(Sc3ncccc3F)c3c(C#N)cnn3c2)cnn1C1CCN(C(=O)[C@@H](C)O)CC1` [Example 193, (R)-4-((3-fluoropyridin-2-yl)thio)-6-(1-(1-(2-hydroxypropanoyl)piperidin-4-yl)-5-methyl-1H-pyrazol-4-yl)pyrazolo[1,5-a]pyridine-3-carbonitrile] yielded an IC50 of 2 nM.

`Cc1c(-c2cc(Sc3ccccc3C#N)c3c(C#N)cnn3c2)cnn1[C@H]1C[C@H]2CC[C@@H](C1)N2C` [Example 264, 4-((2-cyanophenyl)thio)-6-(5-methyl-1-((1R,3r,5S)-8-methyl-8-azabicyclo[3.2.1]octan-3-yl)-1H-pyrazol-4-yl)pyrazolo[1,5-a]pyridine-3-carbonitrile] displayed an IC50 of 1 nM.

Still in this assay, the particulars now being: Enz FGFR2 (nM), FGFR2 wild type enzyme assay.
Molecule `Cc1c(-c2cc(Sc3ccc(Cl)cc3C#N)c3c(C#N)cnn3c2)cnn1C1CCN(C)CC1` [Example 369, 4-((4-chloro-2-cyanophenyl)thio)-6-(5-methyl-1-(1-methylpiperidin-4-yl)-1H-pyrazol-4-yl)pyrazolo[1,5-a]pyridine-3-carbonitrile] gave an IC50 of 5 nM.

`Cc1cccc(C#N)c1Sc1cc(-c2cnn(C)c2)cn2ncc(C#N)c12` [Example 597, 4-((2-cyano-6-methylphenyl)thio)-6-(1-methyl-1H-pyrazol-4-yl)pyrazolo[1,5-a]pryidine-3-carbonitrile]: the IC50 was 30 nM.

The molecule `C[C@H](O)C(=O)N1CCC(n2cc(-c3cc(Sc4ccccc4C#N)c4c(C#N)cnn4c3)cn2)CC1` [Example 448, (S)-4-((2-cyanophenyl)thio)-6-(1-(1-(2-hydroxypropanoyl)piperidin-4-yl)-1H-pyrazol-4-yl)pyrazolo[1,5-a]pyridine-3-carbonitrile] showed an IC50 of 0.3 nM.

`Cc1nn([C@H]2CCCNC2)cc1-c1cc(Sc2ccccc2C#N)c2c(C#N)cnn2c1` [Example 413, (S)-4-((2-cyanophenyl)thio)-6-(3-methyl-1-(piperidin-3-yl)-1H-pyrazol-4-yl)pyrazolo[1,5-a]pyridine-3-carbonitrile]: the IC50 was found to be 3 nM.

Molecule `C[C@H](O)C(=O)N1CCC[C@@H](n2cc(-c3cc(Sc4ccccc4C#N)c4c(C#N)cnn4c3)cn2)C1` [Example 533, 4-((2-cyanophenyl)thio)-6-(1-((R)-1-((S)-2-hydroxypropanoyl)piperidin-3-yl)-1H-pyrazol-4-yl)pyrazolo[1,5-a]pyridine-3-carbonitrile] displayed a concentration for half-maximal inhibition (IC50) of 1 nM.

`CC(=O)N[C@H]1CC[C@@H](n2cc(-c3cc(Sc4ccccc4C#N)c4c(C#N)cnn4c3)c(C)n2)CC1` [Example 394, N-((1s,4s)-4-(4-(3-cyano-4-((2-cyanophenyl)thio)pyrazolo [1,5-a]pyridin-6-yl)-3-methyl-1H-pyrazol-1-yl)cyclohexyl)acetamide] came in with an IC50 of 3 nM.

In the case of `CC(C)(O)Cn1cc(-c2cc(Sc3ncccc3F)c3c(C#N)cnn3c2)cn1` [Example 490, 4-((3-fluoropyridin-2-yl)thio)-6-(1-(2-hydroxy-2-methylpropyl)-1H-pyrazol-4-yl)pyrazolo[1,5-a]pyridine-3-carbonitrile], the IC50 was 2 nM.

Turning to `N#Cc1ccccc1Sc1cc(-c2cnn(C3CCOC3)c2)cn2ncc(C#N)c12` (stereo not drawn) [Example 585, 4-((2-cyanophenyl)thio)-6-(1-(tetrahydrofuran-3-yl)-1H-pyrazol-4-yl)pyrazolo[1,5-a]pryidine-3-carbonitrile], half-maximal inhibition (IC50) required 1 nM.

In the case of `CN1CCC(n2ncc(-c3cc(Sc4ccccc4C#N)c4c(C#N)cnn4c3)c2Cl)CC1` [Example 396, 6-(5-chloro-1-(1-methylpiperidin-4-yl)-1H-pyrazol-4-yl)-4-((2-cyanophenyl)thio)pyrazolo [1,5-a]pyridine-3-carbonitrile], the IC50 came out at 1 nM.

With `C[C@@H](O)C(=O)N1CC[C@@H](n2cc(-c3cc(Sc4ccccc4C#N)c4c(C#N)cnn4c3)cn2)C1` [Example 605, 4-((2-cyanophenyl)thio)-6-(1-((R)-1-((R)-2-hydroxypropanoyl)pyrroli-din-3-yl)-1H-pyrazol-4-yl)pyrazolo[1,5-a]pyridine-3-carbonitrile], it took 0.6 nM to reach half-maximal inhibition (IC50).

For the molecule `Cc1c(-c2cc(Sc3ccc(F)cc3C#N)c3c(C#N)cnn3c2)cnn1C[C@@H](O)CO` [Example 561, (R)-4-((2-cyano-4-fluorophenyl)thio)-6-(1-(2,3-dihydroxypropyl)-5-methyl-1H-pyrazol-4-yl)pyrazolo[1,5-a]pyridine-3-carbonitrile], half-maximal inhibition (IC50) required 7 nM.
